Patent publication US20080081823A1, “PIPECOLIC ACID-CONTAINING ANTIDIABETIC COMPOSITIONS” (Ajinomoto Co., Inc., priority 2006, published 2008)

How the values were obtained:
normal rats = experiment: Oral glucose tolerance test in normal rats provided with pipecolic acid feed for 4 weeks; assay type: in vivo, Male SD rats; conditions: normal SD rats
Text: (a) It was examined whether the increase of the blood glucose after oral injection of glucose to normal rats could be inhibited by providing them with D,L pipecolic acid for 4 weeks.
(b) Male SD rats of 9 weeks old were used to start the experiment.
(c) 24 normal rats were divided into 3 groups (each group consisting of 8 rats) so that their fasting blood glucose and body weights became the same. Feeds adding 0, 0.2 or 0.4% D,L pipecolic acid were provided to each group for 4 weeks. Then, they were fasted for 17 hours, and 10% glucose solution was orally administered to them in its provided amount of 2 g/kg of body weight. At 0, 15, 30, 60, and 120 minutes after the administration, the blood glucose level and blood insulin concentration were measured.
(§1) (b) Preparation of feeds: D,L pipecolic acid (produced by Aldrich) was mixed in small portions with a commercial feed (CRF-1, produced by Oriental Yeast Co., Ltd.) and further mixed together for 5 minutes by using a universal mixer (produced by Dalton Corporation).
(c) Farming rats: 24 (3 experimental sections×8) male SD rats of 7 weeks old were purchased from Charles River Laboratories Japan, Inc. and each was separately farmed in an animal room in a light-dark cycle of 12 hours (7:00 to 19:00) at room temperature of 25° C. After habituation for two weeks, they were divided into 3 groups based on their body weights and fasting blood glucoses, and then the above feeds were provided for 4 weeks. Every Mondays, Wednesdays and Fridays during the period, their body weights and amounts of food ingested were measured, and the feeds were added. 4 weeks later, the oral glucose tolerance test was conducted.
(d) Oral glucose tolerance test: Fasting was started at 17:00 of the day before the test. At 10:00 of the test day, 10% glucose solution was orally administered to the rats in its provided amount of 2 g/kg of body weight. 0, 15, 30, 60, and 120 minutes after the administration, their blood was collected and their blood glucose levels and blood insulin concentrations were measured. The blood glucose levels were promptly measured after the blood collection by using a biochemical auto-analyzer for animals (Fuji DriChem 5500, produced by Fuji Photo Film Co., Ltd.). Further, the collected blood was centrifuged with a centrifuge (himac CF15D, produced by IlitachiKoki Co., Ltd) to take out the blood plasma, and the blood insulin concentrations were measured by using an insulin measurement kit (produced by Morinaga Institute of Biochemical Science, Inc.). FIG. 1A and FIG. 1B indicate the blood glucose transitions and the area under the blood glucose concentration time curve; and FIG. 1C indicates transitions of the blood insulin concentration.

[1] = system: model mice with Type II diabetes; experiment: Oral glucose tolerance test in model mice with Type II diabetes; assay type: in vivo, Male KK-Ay mice; conditions: KK-Ay mice; for increase of blood glucose in the oral glucose tolerance test: feed adding 0.4%
Text: (a) It was examined whether D,L pipecolic acid has an effect of improving the pathology of model mice with Type II diabetes.
(b) Male KK-Ay mice, which are the model mice with Type II diabetes, were used to start the experiment.
(c) 24 KK-Ay mice were divided into 3 groups based on their body weights, and the blood glucose levels and transitions of the blood insulin concentrations when injected glucose. Feeds adding 0, 0.4 or 0.8% D,L pipecolic acid were provided to each group for 10 weeks. At the second and eighth weeks after starting the test, their blood glucose levels and blood insulin concentrations after oral injection of glucose were measured. At the ninth week, the insulin tolerance test was conducted, and at the tenth week, autopsy was conducted to the samples to measure weights of epididymal fats and perinephric fats. […]
(§2) (c) Farming mice: 24 male KK-Ay mice of 5 weeks old were purchased from Clea Japan, Inc. and each was separately farmed in an animal room in a light-dark cycle of 12 hours (7:00 to 19:00) at room temperature of 25° C. Then, KK-Ay mice were divided into 3 groups based on their blood glucose levels and blood insulin concentrations measured when giving glucose. […] At the second and eighth weeks, the oral glucose tolerance test was conducted, and their blood glucoses and blood insulin concentrations after oral injection of glucose were measured. […] Then, at the tenth week, autopsy was conducted to the samples, and weights of epididymal fats and perinephric fats were measured to see effects of pipecolic acid on weights of visceral fats.
(d) Oral glucose tolerance test: Fasting was started at 20:00 of the day before the test. […] 0, 30, 60, 120, 180, and 240 minutes after the administration, their blood was collected and their blood glucose levels and blood insulin concentrations were measured. The blood glucose levels were promptly measured after the blood collection by using a biochemical auto-analyzer for animals (Fuji DriChem 5500, produced by Fuji Photo Film Co., Ltd.). […]

[2] = system: model mice with Type II diabetes; experiment: Insulin tolerance test in model mice with Type II diabetes; assay type: in vivo, Male KK-Ay mice; conditions: KK-Ay mice, feed adding 0.8%, ninth week, insulin 0.5 U/kg subcutaneous, compared with additive-free group
Method: (§3) (c) 24 KK-Ay mice were divided into 3 groups based on their body weights, and the blood glucose levels and transitions of the blood insulin concentrations when injected glucose. Feeds adding 0, 0.4 or 0.8% D,L pipecolic acid were provided to each group for 10 weeks. At the second and eighth weeks after starting the test, their blood glucose levels and blood insulin concentrations after oral injection of glucose were measured. At the ninth week, the insulin tolerance test was conducted, and at the tenth week, autopsy was conducted to the samples to measure weights of epididymal fats and perinephric fats.
as §2, with “fats. […]” for “fats.”

[3] = system: model mice with Type II diabetes; experiment: Measurement of lipids in the liver of model mice with Type II diabetes; assay type: in vivo, Male KK-Ay mice; conditions: KK-Ay mice
Method: (§4) (a) It was examined whether D,L pipecolic acid has an effect on blood and liver lipids of model mice with Type II diabetes.
(§5) (b) Male KK-Ay mice of 6 weeks old were used to start the experiment.
(§6) (c) 16 KK-Ay mice were divided into 2 groups based on their body weights. Feeds wherein 0 or 1.6% D,L pipecolic acid was added were provided to each group for 5 weeks. At the fifth week, they were fasted, and their blood was collected and their livers were extracted to measure their fasting blood triglyceride, fasting blood total cholesterol, fasting free fatty acids in the blood, total lipids in the liver, liver triglyceride and liver total cholesterol.
as §1
(§7) (c) Farming mice: 16 (2 experimental sections×8) male KK-Ay mice of 4 weeks old were purchased from Clea Japan, Inc. and each was separately farmed in an animal room in a light-dark cycle of 12 hours (7:00 to 19:00) at room temperature of 25° C. After naturalizing two weeks, they were divided into 2 groups based on their body weights, and the above feeds were provided to them for 5 weeks. Every Mondays, Wednesdays and Fridays during the period, their body weights and amounts of food ingested were measured, and the feeds were added. After 5 weeks passed, they were fasted for 17 hours, their blood was collected and their livers were extracted. The fasting blood triglyceride, fasting blood total cholesterol, fasting free fatty acids in the blood, total lipids in the liver, liver triglyceride and liver total cholesterol were measured by using those samples.
(e) Measurement of lipids in the liver: About 0.5 g of a liver sample is homogenized in 10 mL of chloroform/methanol (2:1) solution, and lipids are extracted overnight. […] 5 mL thereof is concentrated by drying with a centrifugal evaporator, and its weight measured becomes total lipids in the liver. […]

[4] = system: model mice with Type II diabetes; experiment: Measurement of lipids in the blood of model mice with Type II diabetes; assay type: in vivo, Male KK-Ay mice; conditions: KK-Ay mice, feed adding 1.6% for 5 weeks, fasting, average value
Method: as §4, §5
as §6, with “cholesterol. […]” for “cholesterol.”
as §7, with “After naturalizing two weeks, they were divided into 2 groups based on their body weights, and the above feeds were provided to them for 5 weeks.” left out, “After 5 weeks passed, they were fasted for 17 hours, their blood was collected and their livers were extracted.” left out, “samples. […]” for “samples.”

[5] = system: model mice with Type II diabetes; experiment: Autopsy: weights of epididymal fats and perinephric fats in model mice with Type II diabetes; assay type: in vivo, Male KK-Ay mice; conditions: KK-Ay mice, feed adding 0.8%, autopsy at tenth week
Method: as §3
as §2, with “fats. […]” for “fats.”

obese model rats = experiment: Oral glucose tolerance test in obese model rats (high-fat diets) provided with pipecolic acid for 4 weeks; assay type: in vivo, Male SD rats; conditions: 0.2 or 0.4% added to high-fat diets for 4 weeks
Text: (a) It is reported that obese model rats produced by giving high-fat diets express insulin resistance and develop hyperinsulinemia. It was examined whether the increase of the blood glucose and blood insulin concentration after oral injection of glucose to these obese model rats could be inhibited by providing them with D,L pipecolic acid for 4 weeks.
(b) Male SD rats of 6 weeks old were used to start the experiment.
(c) 48 rats were divided into 2 groups so that their fasting blood glucoses and body weights became the same. Normal diets or high-fat diets were given to them for 3 weeks (model production period). […] 0, 15, 30, 60, and 120 minutes after the administration, their blood glucose levels and blood insulin concentrations were measured. […]
(d) Farming rats: 48 (6 experimental sections×8) male SD rats of 5 weeks old were purchased from Charles River Laboratories Japan, Inc. and each was separately farmed in an animal room in a light-dark cycle of 12 hours (7:00 to 19:00) at room temperature of 25° C. […] Every Mondays, Wednesdays and Fridays during all periods starting from the model production period to the end of the test period, their body weights and amounts of food ingested were measured, and the feeds were added. […]

[6] = feed adding 0.4% for 4 weeks, glucose 2 g/kg oral
[7] = feed adding 1.6% for 5 weeks, average value

O=C(O)C1CCCCN1 (centres unmarked) [D,L pipecolic acid]
increase of the blood glucose after oral injection of glucose (normal rats; feed adding 0.2% for 4 weeks, glucose 2 g/kg oral): inhibited
blood insulin concentration (normal rats; feed adding 0.2 or 0.4% for 4 weeks, any group and any time period after glucose): did not change
blood glucose of 30 and 60 minutes after the administration (normal rats; [6]): decreased
increase of the blood glucose after oral injection of glucose (normal rats; [6]): inhibited
increase of blood glucose in the oral glucose tolerance test ([1]; eighth week): no strong effect of inhibiting the increase of the blood glucose was confirmed
increase of blood glucose in the oral glucose tolerance test ([1]; second week, compared with additive-free group): inhibited
increase of the blood glucose after injection of glucose ([1]; feed adding 0.8%, until the eighth week): effect of inhibiting the increase of the blood glucose after injection of glucose was seen
decrease of the blood glucose after administering insulin [2]: promoted
total lipids in the liver ([3]; feed adding 0 or 1.6% for 5 weeks): significantly correlate with the additive amount of pipecolic acid
decrease of liver total cholesterol as compared with the control group [3, 7]: about 20%
decrease of liver triglyceride as compared with the control group [3, 7]: about 20%
decrease of blood triglyceride as compared with the control group [4]: about 20%
decrease of free fatty acids in the blood as compared with the control group [4]: about 20%
weights of epididymal fats [5]: decreased
weights of perinephric fats [5]: decreased
blood insulin concentration (obese model rats; after glucose 2 g/kg oral): decreased to around the same extent as that of the normal diet groups
increase of the blood glucose after giving glucose (obese model rats; glucose 2 g/kg oral): hardly inhibited
